In publication PMC8989696, “Characterization of furathiocarb metabolism in in-vitro human liver microsomes and recombinant cytochrome P450 enzymes” (Toxicology Reports, 2022):
Like-named read-outs stand apart in the source and are kept apart here.

What was measured:
[1] = Furathiocarb biotransformation kinetics in individual human hepatic microsomes (10 donors); assay type: in vitro ADME; conditions: for Variation between the highest and lowest formation rate / Metabolite formation rate (lowest to highest of 10 donors): at 300 µM furathiocarb; for Variation between the highest and lowest formation rate: 10 donors; for Metabolite formation rate (lowest to highest of 10 donors): individual human hepatic microsomes
Experimental: The incubation mixture (ﬁnal volume of 200 µl of 0.1 M phosphate buffer) contained 50 and 100 µM furathiocarb, 0.15 mg pooled liver microsomal protein (n = 10), and 1 mM NADPH. The reaction was initiated by NADPH after a 2 min pre-incubation at + 37 °C and was incubated for 30 min at + 37 °C. The reaction stopped with ice-cold acetonitrile containing an internal standard.
Enzyme kinetic parameters of both the microsomal samples and rCYP enzymes were measured. The incubation mixture contained furathiocarb (2.5, 10, 25, 50, 150 and 300 µM). Incubation times were 20 and 30 min for microsomal samples and rCYPs, respectively. Otherwise incubation mixtures and methods were the same as in metabolite identification. The rate of sum of furathiocarb metabolite formation was linear at least up to 0.15 mg protein/ml and 30 min incubation time in the standard experimental conditions.
The standard incubation mixture contained 50 and 100 µM furathiocarb, 0.15 mg pooled liver microsomal protein (n = 10), and 1 mM NADPH in a ﬁnal volume of 200 µl of 0.1 M phosphate buffer (pH 7.4). Furathiocarb was prepared once a week in dimethylsulfoxide (DMSO; ﬁnal amount in the reaction medium 1.0%). After a 2-min incubation at +37 ◦C in a shaking incubator block, the reaction was started by adding NADPH. The mixture was incubated at +37 ◦C for 30 min and the reaction was stopped with 600 µl of ice-cold acetonitrile containing an internal standard. All incubations were carried out in triplicate.

CYP3A4 [2] = assay: in vitro; conditions: ketoconazole 100 µM, pooled human hepatic microsomes
Experimental: Formation rates of metabolites were determined in the presence or absence of ketoconazole 100 µM.
Each point represents the mean ± S.D of three separate determinations.

CYP2D6 = conditions: cited from earlier work
CYP3A4 [3] = conditions: cited from earlier work
CYPs 1A1/2 = conditions: read-out: IC50, CYP 1A1/2; cited from earlier work
2B6 = conditions: read-out: IC50, CYP 2B6; cited from earlier work
2C19 = conditions: read-out: IC50, 2C19; range given jointly for CYP2C9, 2C19 and CYP2D6; no reference given; cited from earlier work
CYP2C9 = conditions: read-out: IC50, CYP2C9; range given jointly for CYP2C9, 2C19 and CYP2D6; no reference given; cited from earlier work
[4] = 54; cited from earlier work
[5] = read-out: IC50, CYP3A4 (MDZ-OH)

CNC(=O)Oc1cccc2c1OC(C)(C)C2O (stereo not drawn) [3-hydroxycarbofuran]
Variation between the highest and lowest formation rate [1]: 10 fold
Metabolite formation rate (lowest to highest of 10 donors) [1]: 0.68 to 6.83 nmol/(mg protein min)

CC(=O)N1CCN(c2ccc(OCC3COC(Cn4ccnc4)(c4ccc(Cl)cc4Cl)O3)cc2)CC1 (stereo not drawn) [Ketoconazole]
inhibition at 20 min, 100 µM (CYP3A4 [2]; human, microsomes, Inhibition of carbofuran metabolic pathway formation, various furathiocarb concentrations): 32 to 86%
Effect on the formation of metabolite A (CYP3A4 [2]): no effects

CCOP(=S)(OCC)Oc1nc(Cl)c(Cl)cc1Cl [Chlorpyrifos]
IC50 (CYP2D6; read-out: IC50, CYP 2D6): 3.3 µM
IC50 (CYP3A4 [3]; read-out: IC50, CYP 3A4): 4 µM
IC50 (CYPs 1A1/2): 2.9 µM
IC50 (2B6): 2.5 µM

CCCCN(CCCC)SN(C)C(=O)Oc1cccc2c1OC(C)(C)C2 [Carbosulfan]
IC50 (CYP2D6; read-out: IC50, CYP2D6, range given jointly for CYP2C9, 2C19 and CYP2D6, no reference given): 16 to 25 µM
IC50 (CYP3A4 [3]; [5]): 11.2 µM
IC50 (2C19): 16 to 25 µM
IC50 (CYP2C9): 16 to 25 µM

CNC(=O)Oc1cccc2c1OC(C)(C)C2 [Carbofuran, carbofuran]
Toxic class, WHO classification of pesticides by hazard [4]: 1b

CC1(C)Cc2cccc(O)c2O1 [7-phenolcarbofuran]
Variation between the highest and lowest formation rate [1]: 2 fold
Metabolite formation rate (lowest to highest of 10 donors) [1]: 4.5–8.3 nmol/(mg protein min)

CCOC(=O)CCN(SN(C)C(=O)Oc1cccc2c1OC(C)(C)C2)C(C)C [benfuracarb]
IC50 (CYP3A4 [3]; [5]): 14.8 µM

CC1(C)Oc2c(O)cccc2C1O (stereo not drawn) [3-hydroxy-7-phenolcarbofuran]
Variation between the highest and lowest formation rate [1]: 23 fold
Metabolite formation rate (lowest to highest of 10 donors) [1]: 0.02–0.52 nmol/(mg protein min)

CC1(C)Oc2c(O)cccc2C1=O [3-keto-7-phenolcarbofuran]
Metabolite amounts formed in HLM31 ([1]; HLM31, all furathiocarb concentrations used): below the limits of quantiﬁcation

CNC(=O)Oc1cccc2c1OC(C)(C)C2=O [3-ketocarbofuran]
Variation between the highest and lowest formation rate [1]: 54.4 fold
Metabolite formation rate (lowest to highest of 10 donors) [1]: 0.28–15.6 nmol/(mg protein min)
